Experimental data taken from patent publication US20260209175A1, “PHARMACEUTICALLY ACCEPTABLE 5-METHOXY-N,N-DIMETHYL[…] AND COMPOSITIONS THEREOF” (priority 2022, published 2026).
Counter-ions that a name gives are not always drawn. Like-named read-outs stand apart in the source and are kept apart here.

Key:
[1] = Dynamic Vapor Sorption (DVS) analysis of salts, with XRPD of the post-DVS sample; format: physicochemical
Method: XRPD diffractograms were acquired using Bruker D2 Phaser diffractometer equipped with LYNXEYE detector. Samples were prepared using a zero-background sample holder. The samples were scanned from 5 to 32° (2θ) using a step size of 0.02° and a time per step of 0.13 second whilst spinning the sample. Diffractograms were plotted using the EVA program from Bruker.
DVS analyses were performed on TA Instrument DVS Q5000. Samples were added to a pre-tared metallised quartz crucible and run at 25° C. from 40% RH to 90% RH, down to zero and back to 40%. This cycle was repeated in increments of 10% RH.

[2] = format: physicochemical; details: 40° C./75% RH, three days
Method: Salt screening studies with 24 selected counter-ions were performed to determine if 5-MeO-DMT free base is amenable to salt formation. […] Salts were examined by XRPD, TGA, DSC, 1H NMR and some by DVS analyses. Short term physical stability was examined by storage of salts at 40° C./75% RH for three days.
Physical stability stress tests were conducted on generated crystalline salts at controlled temperature and relative humidity. The powder samples were stored at 40° C./75% RH for three days. After this time samples were analysed by XRPD to see whether the physical state of salts changed during the storage.

[3] = Solubility assessments in four different media; format: physicochemical; details: for pH after addition of 1 ml media at 37° C. / Observation / pH after addition of 1.5 ml media at 37° C.: 250 mg per vial; for solubility relative to other salts: comparison of the salt forms
Method: Solubility assessments of 5-MeO-DMT oxalate, hydrobromide fumarate and benzoate were performed in four different media: […]

[4] = Dissolution rate in simulated nasal fluid (UV-fiber optic dissolution apparatus); format: physicochemical; details: 5 mg in 5 mL simulated nasal fluid, 37° C., 150 RPM
Method: The dissolution rate was determined using a method comprising the use of a UV-fiber optic-based dissolution apparatus (one such suitable device is the Rainbow® Dynamic Dissolution Monitor by Pion Inc) and simulated nasal fluid. The simulated nasal fluid comprises 7.45 g/L NaCl, 1.29 g/L KCl, 0.32 g/L CaCl2×2H2O and deionised water.
The dissolution apparatus was set up with a 2 mm probe to measure the dissolution rate. 5 mg of the salt form was transferred into 5 mL of simulated nasal fluid, heated to a constant temperature of 37° C. and stirred at 150 RPM using a crossed stirrer bar. Measurements were taken at 3 s intervals for 130 intervals followed by 60 measurements taken at 10 s intervals for a total time of 16 minutes and 30 s. Detection of dissolution is by UV absorbance.

[5] = Thermo-Gravimetric Analysis (TGA), thermal stability; format: physicochemical; details: 10° C./min ramp; for thermally stable up to (TGA): nitrogen
Method: TGA thermograms were obtained with a TA Instrument Discovery 550 in Al pans. The heating rate used was 10° C./min linear ramp from 25 to 400° C. with a nitrogen purging at a rate of 60 ml/min. TGA thermograms were analysed using TRIOS software.

[6] = Oxalate salt solubility by HPLC; format: physicochemical; details: pH 1.2 medium, simulated gastric fluid, thermodynamic from solid, mother liquors adjusted to the desired pH, read-out: Solubility (mg/mL) of free base
Method: The benzoate salt has a solubility of, at least, 100 mg/ml. The calibration curve of the free base was prepared between 0.031-0.500 mg/ml and can be seen in FIG. 172.
Mother liquors were adjusted to the desired pH before HPLC quantification.

[7] = salt screen / scale-up batches, DVS at 25° C

SMILES: Br.COc1ccc2[nH]cc(CCN(C)C)c2c1 [Hydrobromide salt, 5-MeO-DMT hydrobromide]
- solid form after DVS (XRPD post DVS) ([1]; salt produced during scale-up): no change in crystalline form
- hygroscopicity classification [1, 7]: non-hygroscopic
- crystalline form by XRPD after storage [2]: No change in crystalline form
- pH after addition of 1 ml media at 37° C. ([3]; SNF): 8.13
- Observation ([3]; SNF, 1 ml media at 37° C.): Clear solution
- solubility relative to other salts [3]: high solubility
- pH after addition of 1 ml media at 37° C. ([3]; pH 1.2 buffer): 8.09
- Observation ([3]; pH 1.2 buffer, 1 ml media at 37° C.): Clear solution
- pH after addition of 1 ml media at 37° C. ([3]; pH 4.5 buffer): 7.65
- Observation ([3]; pH 4.5 buffer, 1 ml media at 37° C.): Clear solution
- pH after addition of 1 ml media at 37° C. ([3]; pH 6.8 buffer): 7.82
- Observation ([3]; pH 6.8 buffer, 1 ml media at 37° C.): Clear solution
- dissolution rate [4]: almost instantaneous
- thermally stable up to (TGA) [5]: 220 °C

SMILES: COc1ccc2[nH]cc(CCN(C)C)c2c1 [Oxalate salt, 5-MeO-DMT oxalate]
- solid form after DVS (XRPD post DVS) [1]: no change in the crystalline form
- pH after addition of 1.5 ml media at 37° C. ([3]; SNF): 2.13
- Observation ([3]; SNF, 1.5 ml media at 37° C.): Suspension
- solubility relative to other salts [3]: lowest solubility
- pH after addition of 1.5 ml media at 37° C. ([3]; pH 1.2 buffer): 1.87
- Observation ([3]; pH 1.2 buffer, 1.5 ml media at 37° C.): Suspension
- pH after addition of 1.5 ml media at 37° C. ([3]; pH 4.5 buffer): 3.05
- Observation ([3]; pH 4.5 buffer, 1.5 ml media at 37° C.): Suspension
- pH after addition of 1.5 ml media at 37° C. ([3]; pH 6.8 buffer): 3.45
- Observation ([3]; pH 6.8 buffer, 1.5 ml media at 37° C.): Suspension
- solubility [6]: 19 mg/mL
- dissolution rate [4]: prolonged

SMILES: COc1ccc2[nH]cc(CCN(C)C)c2c1 [Tartrate salt, 5-MeO-DMT tartrate]
- total water (moisture) uptake between 0% RH and 90% RH ([1]; 25° C): approximately 3.3 % w/w
- sorption/desorption behaviour (reversibility, hysteresis) ([1]; DVS isotherm, 25° C): reversible and overlap
- solid form after double-cycle DVS experiment (XRPD) ([1]; Example 3 Pattern 1 batches): unchanged
- total reversible mass change between 0-90% RH ([1]; Example 3 Pattern 1 batches): 0.6 wt. %
- hygroscopicity classification ([1]; Example 3 Pattern 1 batches, 0-90% RH): slightly hygroscopic (Pharmaceuticals that pick up between 0.2% and 2.0% moisture at 80% RH are considered slightly hygroscopic)
- hygroscopicity classification [1, 7]: moderately hygroscopic (Pharmaceuticals that pick up between 2.0% and 15.0% moisture at 80% RH are considered moderately hygroscopic)
- hygroscopicity classification ([1]; salt screen / scale-up batches, DVS at 25° C, listed as tartrate salt): moderately hygroscopic (Pharmaceuticals that pick up between 2.0% and 15.0% moisture at 80% RH are considered moderately hygroscopic)
- solid form after DVS (XRPD post DVS) ([1]; salt screen batches): did not undergo any solid form transformation
- crystalline form by XRPD after storage [2]: No change in the crystalline form
- onset of decomposition / mass loss (TGA) [5]: 175 °C
- thermally stable up to (TGA) [5]: around 170 °C
